Drawing on patent US8394789B2, “(Dihydro)pyrrolo[2,1-α]isoquinolines” (MSD Oss B.V., priority 2008, dated 2013), this text covers EC50 for eleven compounds.

pEC50: −log10 of the molar value.

The target of the test is T1, human FSH receptor (Homo sapiens, UniProt P23945).
T1 construct: expressed in transfected cells
T1 sequence (P23945 18-695): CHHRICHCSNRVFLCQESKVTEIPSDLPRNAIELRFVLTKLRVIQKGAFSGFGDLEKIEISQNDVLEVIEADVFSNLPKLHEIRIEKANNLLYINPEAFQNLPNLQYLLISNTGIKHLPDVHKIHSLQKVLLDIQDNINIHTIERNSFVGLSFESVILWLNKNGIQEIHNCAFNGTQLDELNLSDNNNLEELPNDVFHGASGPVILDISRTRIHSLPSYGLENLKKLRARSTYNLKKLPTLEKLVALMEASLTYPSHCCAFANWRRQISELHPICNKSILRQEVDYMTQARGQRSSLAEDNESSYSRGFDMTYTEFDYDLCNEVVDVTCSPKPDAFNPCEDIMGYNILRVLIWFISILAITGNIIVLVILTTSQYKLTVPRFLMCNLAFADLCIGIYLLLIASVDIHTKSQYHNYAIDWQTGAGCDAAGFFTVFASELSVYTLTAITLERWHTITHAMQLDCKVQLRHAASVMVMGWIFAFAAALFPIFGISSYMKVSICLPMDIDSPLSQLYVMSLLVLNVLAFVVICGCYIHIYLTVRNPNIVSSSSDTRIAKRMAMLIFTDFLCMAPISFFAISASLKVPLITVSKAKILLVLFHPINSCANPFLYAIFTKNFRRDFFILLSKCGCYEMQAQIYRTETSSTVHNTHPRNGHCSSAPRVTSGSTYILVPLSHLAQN
Briefly: hFSHRago (CHO luc): agonistic activity at the human FSH receptor expressed in CHO cells, CRE-luciferase reporter. It is filed as cell-based. Conditions: CHO cells stably transfected with human FSH receptor and CRE/luciferase reporter; 4 hours of incubation. A general note: A reporter such as luciferase makes a cellular process visible.
Description: The term EC50 means the concentration of the test compound that elicits half-maximal (50%) stimulation compared to the compound's maximally attainable effect. The values can be determined e.g. in a cell line transfected with a FSH receptor gene and cotransfected with a cAMP responsive element/promoter directing the expression of a reporter gene. Values can be determined using the software program such as MathIQ (version 2.0, ID Business Solutions Limited).
Agonistic activity of the compounds at the human FSH receptor was determined in Chinese Hamster Ovary (CHO) cells stably transfected with the human FSH receptor and cotransfected with a cAMP responsive element (CRE)/promoter directing the expression of a firefly luciferase reporter gene. […] Cells (7,500 cells/well of a 384 well plate) were incubated in Dulbecco' minimal essential F12 modified medium (Invitrogen), supplemented with 1 μg/ml bovine insulin, 5 μg/ml human apo-transferrin, 80 U/ml penicillin G and 80 μg/ml streptomycin with the test compounds (concentration between 0.0316 nM and 10.0 μM) in duplicate in a humidified atmosphere (95%) at 5-7% CO2 and 37° C. The final concentration of DMSO was 1%. After 4 hours of incubation, plates were allowed to adjust to room temperature for 1 hour. Then, Luclite (PerkinElmer) solution was added to the wells and cells were allowed to lyse for at least 1 hour at room temperature. Subsequently, luciferase activity was measured in a luminescence counter. The signal is expressed as counts per second (cps). The EC50 (concentration of the test compound that elicits half-maximal (50%) luciferase stimulation compared to the compound's maximally attainable effect) and efficacy values (maximal effect of the test compound as percentage of the maximal effect of recombinant human FSH) of the compounds were determined using the software program MathIQ (version 2.0, ID Business Solutions Limited).
Take `COc1cc2c(cc1OCCSC)-c1c(-c3cccs3)cc(C(=O)N(C)C(C)(C)C)n1CC2` [Example 71, 8-Methoxy-9-(2-methylsulfanyl-ethoxy)-1-thiophen-2-yl-5,6-dihydro-pyrrolo[2,1-α]isoquinoline-3-carboxylic acid tert-butyl-methyl-amide]: the pEC50 – broadly, the EC50 on a negative log10 scale, so that one unit is a factor of ten – is 7.58.

With `COc1cc2c(cc1OCCS(C)(=O)=O)-c1c(-c3cccs3)cc(C(=O)N(C)C(C)(C)C)n1CC2` [Example 72, 9-(2-Methanesulfonyl-ethoxy)-8-methoxy-1-thiophen-2-yl-5,6-dihydro-pyrrolo[2,1-α]isoquinoline-3-carboxylic acid tert-butyl-methyl-amide], the negative-log EC50 (pEC50) was 7.77.

The compound `COc1cc2c(cc1OCCN(C)C)-c1c(-c3cccs3)cc(C(=O)N(C)C(C)(C)C)n1CC2` [Example 73, 9-(2-Dimethylamino-ethoxy)-8-methoxy-1-thiophen-2-yl-5,6-dihydro-pyrrolo[2,1-α]isoquinoline-3-carboxylic acid tert-butyl-methyl-amide; trifluoro acetic acid] gave a pEC50 of 6.93.

The compound `COc1cc2c(cc1OCC1CC1)-c1c(-c3cccs3)cc(C(=O)N3CCCN(C(C)=O)CC3)n1CC2` [Example 77, 1-[4-(9-Cyclopropylmethoxy-8-methoxy-1-thiophen-2-yl-5,6-dihydro-pyrrolo[2,1-α]iso-quinoline-3-carbonyl)-perhydro-1,4-diazepin-1-yl]-ethanone] had a negative logarithm of the EC50 (pEC50) of 7.24.

As for `COc1cc2c(cc1OCC1CCCO1)-c1c(-c3cccs3)cc(C(=O)N3CCCN(C(C)=O)CC3)n1CC2` (stereo not drawn) [Example 78, 1-{4-[8-Methoxy-9-(tetrahydro-furan-2-ylmethoxy)-1-thiophen-2-yl-5,6-dihydro-pyrrolo[2,1-α]isoquinoline-3-carbonyl]-perhydro-1,4-diazepin-1-yl}-ethanone], the negative logarithm of the EC50 (pEC50) is 7.02.

On to `COc1cc2c(cc1OC1CCCC1)-c1c(-c3cccs3)cc(C(=O)N3CCCN(C(C)=O)CC3)n1CC2` [Example 79, 1-[4-(9-Cyclopentyloxy-8-methoxy-1-thiophen-2-yl-5,6-dihydro-pyrrolo[2,1-α]isoquinoline-3-carbonyl)-perhydro-1,4-diazepin-1-yl]-ethanone], for which the pEC50 was 7.85.

As to `COc1cc2c(cc1OCCC(C)C)-c1c(-c3cccs3)cc(C(=O)N3CCCN(C(C)=O)CC3)n1CC2` [Example 80, 1-{4-[8-Methoxy-9-(3-methyl-butoxy)-1-thiophen-2-yl-5,6-dihydro-pyrrolo[2,1-α]isoquinoline-3-carbonyl]-perhydro-1,4-diazepin-1-yl}-ethanone], the negative-log EC50 (pEC50) was 7.00.

For `COc1cc2c(cc1CC(C)C)-c1c(-c3cccs3)cc(C(=O)N(C)C(C)(C)CO)n1CC2` [Example 81, 9-Isobutyl-8-methoxy-1-thiophen-2-yl-5,6-dihydro-pyrrolo[2,1-α]isoquinoline-3-carboxylic acid (2-hydroxy-1,1-dimethyl-ethyl)-methyl-amide], the negative-log EC50 (pEC50) is 8.22.

As for `COC1=CC2CCn3c(C(=O)N4CCCN(C(=O)C5CCC5)CC4)cc(-c4cccs4)c3C2C=C1Br` (stereo not drawn) [Example 82, (9-Bromo-8-methoxy-1-thiophen-2-yl-5,6,6a,10a-tetrahydro-pyrrolo[2,1--α]isoquinolin-3-yl)-(4-cyclobutanecarbonyl-[1,4]diazepan-1-yl)-methanone], the pEC50 was 8.24.

Take `COc1cc2c(cc1C#N)-c1c(-c3cccs3)cc(C(=O)N(C)C(C)(C)C)n1CC2` [Example 83, 9-Cyano-8-methoxy-1-thiophen-2-yl-5,6-dihydro-pyrrolo[2,1--α]isoquinoline-3-carboxylic acid tert-butyl-methyl-amide]: the pEC50 is 8.37.

Take `CCOC(=O)c1cc2c(cc1OC)CCn1c(C(=O)N3CCCN(C(=O)C4CCC4)CC3)cc(-c3cccs3)c1-2` [Example 84, 3-(4-Cyclobutanecarbonyl-[1,4]diazepane-1-carbonyl)-8-methoxy-1-thiophen-2-yl-5,6-dihydro-pyrrolo[2,1--α]isoquinoline-9-carboxylic acid ethyl ester]: the pEC50 is 8.54.
